# Measured values as given in paper PMC9090415, “Discovery of small molecule inhibitors of Plasmodium falciparum apicoplast DNA polymerase” (Journal of Enzyme Inhibition and Medicinal Chemistry, 2022).
# Target: P. falciparum apicoplast DNA polymerase (Pf-apPOL) (Plasmodium falciparum, UniProt Q8ILY1)
# Experiment: Fluorescence-based high-throughput DNA polymerase assay (molecular beacon), primary screen and dose-response
# Assay type: biochemical
# Description: The HT assay employs a molecular beacon, a stem-loop DNA template with a Cy3 dye and the Black Hole Quencher on the 3′ and 5′ ends of the DNA, respectively. Pf-apPOL concentration is based on a calculated absorptivity of ε280 = 56750 M^−1 cm^−1. Reactions were carried out at 25 °C, using Corning 3575 […] (well-volume, 20 µL). Assays testing for compound inhibition composed of reaction buffer (pH 7.9 in 50 mM potassium acetate, 20 mM Tris-acetate and 10 mM magnesium acetate), Pf-apPOL (20 nM), DNA substrate (20 nM), dNTPs (6 µM), and compound (10 µM in DMSO). The DNA and nucleotide substrates (dNTPs) were at concentrations of 20 nM and 6 µM, respectively, in the assay. Pf-apPOL was incubated in the reaction buffer with dNTPs and the compound of interest (10 µM, in the assay) at 25 °C for 10 min. The DNA substrate was then added and the reaction was allowed to proceed for 90 min at 25 °C.
# Each assay plate contained 16 negative controls (no Pf-apPOL, DMSO present) and 16 positive controls (Pf-apPOL present, no DMSO). The fluorescence of each well was determined using a BioTek Synergy Neo fluorescence plate reader using excitation and emission wavelengths of 555 and 570 nm, respectively.
# In the above, Min is the average of fluorescence emission of the negative controls (substrate only), Max the average fluorescence emission from the positive controls (enzyme + substrate), and Test the emission from the assays in the presence of compounds (enzyme + compound + substrates). […] […] The IC50 of each compound was determined using Equation (2): (2) IC50= Vmax/(1+ (I/IC50)^n)
# In the above, n measures cooperativity, with n > 1 indicating synergistic binding of more than a single molecule of the compound.
# To identify apPOL inhibitors we utilised our previously developed high-throughput DNA polymerase assay. The HT assay is based on a molecular beacon DNA template that forms a stem-loop with a Cy3 dye and the Black Hole Quencher on the 3′ and 5′ ends of the DNA, respectively. DNA polymerase activity extends an annealed primer through the stem region, displacing the fluorophore from the quencher, thereby increasing its fluorescence (Figure 1(A)). The assay accurately recapitulates the kinetic behaviour of apPOL, as measured through more conventional low-throughput gel-based assays. The Z′ factor for the assay described here was 0.9 across all plates (data not shown).
# Figure 1. High-throughput screening. (A) The fluorescent-based DNA polymerase assay used to screen the compound libraries. The DNA template strand is a hairpin loop with a primer annealed to the loop. The 3’ end of the primer is 11 bases away from the 6 bp duplex. Strand displacement activity of the DNA polymerase separates the Cy3 dye from the Black hole quencher leading to an increase in fluorescent signal. (B) The high-throughput assay workflow. The DNA polymerase is incubated with […] compound for 10 min prior to addition of the hairpin substrate. The reaction is quenched at 3 different time points and the fluorescent signal is measured and % inhibition is determined using the provided equation.
# [1] = 'DNA Pol' of the 186 hits list (screen value); 90 min, 10 µM
# [2] = primary screen value, "DNA Pol"; 90 min, 10 µM
# [3] = supplemental file 2, sheet IC50 nontoxic compounds; Pf-apPOL
# Chain of P. falciparum apicoplast DNA polymerase (Pf-apPOL) (Q8ILY1 entry or part of it): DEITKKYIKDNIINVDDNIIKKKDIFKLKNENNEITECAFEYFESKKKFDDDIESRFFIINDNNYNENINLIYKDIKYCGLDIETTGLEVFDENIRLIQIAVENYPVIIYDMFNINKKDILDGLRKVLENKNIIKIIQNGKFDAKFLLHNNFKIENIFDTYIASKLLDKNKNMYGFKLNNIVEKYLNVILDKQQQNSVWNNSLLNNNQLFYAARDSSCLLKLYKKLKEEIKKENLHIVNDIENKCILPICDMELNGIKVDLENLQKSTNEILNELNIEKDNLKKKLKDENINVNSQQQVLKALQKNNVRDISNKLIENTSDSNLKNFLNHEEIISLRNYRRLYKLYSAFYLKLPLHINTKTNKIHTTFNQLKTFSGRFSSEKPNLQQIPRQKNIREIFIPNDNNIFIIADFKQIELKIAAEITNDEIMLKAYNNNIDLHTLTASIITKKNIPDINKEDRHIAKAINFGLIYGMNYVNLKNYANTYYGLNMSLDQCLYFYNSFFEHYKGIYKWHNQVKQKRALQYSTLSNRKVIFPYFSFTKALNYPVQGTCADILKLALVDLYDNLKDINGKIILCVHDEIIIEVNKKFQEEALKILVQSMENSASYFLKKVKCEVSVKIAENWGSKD
smiles,measurement,setting,value
Cc1cccc(C2=N/C(=C\c3ccc([N+](=O)[O-])o3)C(=O)O2)c1 [KU0058960],DNA Pol,[1],79
same,% inhibition Apo pol 10',DRC-1; 10'; conc 2.5,31.9938%
same,% inhibition Apo pol 10',DRC-1; 10'; conc 5,37.9558%
same,% inhibition Apo pol 10',DRC-1; 10'; conc 10,61.5267%
same,% inhibition Apo pol 10',DRC-1; 10'; conc 20,80.2962%
same,% inhibition Apo pol 10',DRC-1; 10'; conc 40,86.7912%
same,% inhibition Apo pol 10',DRC-1; 10'; conc 80,87.9713%
same,% inhibition Apol 90',DRC-1; 90'; conc 2.5,16.0415%
same,% inhibition Apol 90',DRC-1; 90'; conc 5,19.2427%
same,% inhibition Apol 90',DRC-1; 90'; conc 10,39.4275%
same,% inhibition Apol 90',DRC-1; 90'; conc 20,66.6869%
same,% inhibition Apol 90',DRC-1; 90'; conc 40,86.2407%
same,% inhibition Apol 90',DRC-1; 90'; conc 80,92.5412%
same,% inhibition apPOL 180',DRC-1; 180'; conc 2.5,6.3408%
same,% inhibition apPOL 180',DRC-1; 180'; conc 5,6.493%
same,% inhibition apPOL 180',DRC-1; 180'; conc 10,24.2065%
same,% inhibition apPOL 180',DRC-1; 180'; conc 20,52.0492%
same,% inhibition apPOL 180',DRC-1; 180'; conc 40,83.7016%
same,% inhibition apPOL 180',DRC-1; 180'; conc 80,94.2271%
same,% inhibition Apo pol 5',DRC-2; 5'; conc 2.5,15%
same,% inhibition Apo pol 5',DRC-2; 5'; conc 5,25%
same,% inhibition Apo pol 5',DRC-2; 5'; conc 10,37%
same,% inhibition Apo pol 5',DRC-2; 5'; conc 20,45%
same,% inhibition Apo pol 5',DRC-2; 5'; conc 40,51%
same,% inhibition Apo pol 5',DRC-2; 5'; conc 80,48%
same,% inhibition Apo pol 5',DRC-2; 5'; concentration 10,37%
same,% inhibition Apol 40',DRC-2; 40'; conc 2.5,12%
same,% inhibition Apol 40',DRC-2; 40'; conc 5,23%
same,% inhibition Apol 40',DRC-2; 40'; conc 10,37%
same,% inhibition Apol 40',DRC-2; 40'; conc 20,50%
same,% inhibition Apol 40',DRC-2; 40'; conc 40,64%
same,% inhibition Apol 40',DRC-2; 40'; conc 80,69%
same,% inhibition Apol 40',DRC-2; 40'; concentration 10,37%
same,% inhibition ApPOL 90',DRC-2; 90'; conc 2.5,9%
same,% inhibition ApPOL 90',DRC-2; 90'; conc 5,19%
same,% inhibition ApPOL 90',DRC-2; 90'; conc 10,33%
same,% inhibition ApPOL 90',DRC-2; 90'; conc 20,47%
same,% inhibition ApPOL 90',DRC-2; 90'; conc 40,66%
same,% inhibition ApPOL 90',DRC-2; 90'; conc 80,74%
same,% inhibition apPOL 180',DRC-2; 180'; conc 2.5,1.68%
same,% inhibition apPOL 180',DRC-2; 180'; conc 5,7%
same,% inhibition apPOL 180',DRC-2; 180'; conc 10,20%
same,% inhibition apPOL 180',DRC-2; 180'; conc 20,36%
same,% inhibition apPOL 180',DRC-2; 180'; conc 40,63%
same,% inhibition apPOL 180',DRC-2; 180'; conc 80,78%
same,DNA Pol,[2],79
O=C(O)CC1=NN(c2cccc([N+](=O)[O-])c2)C(=O)C1 [KU0100531],DNA Pol,"'DNA Pol'; screening value, unit not given; 90 min, 10 µM",37
same,% inhibition Apo pol 10',DRC-1; 10'; concentration 2.5,32.2581%
same,% inhibition Apo pol 10',DRC-1; 10'; concentration 5,49.6373%
same,% inhibition Apo pol 10',DRC-1; 10'; concentration 10,61.4137%
same,% inhibition Apo pol 10',DRC-1; 10'; concentration 20,68.5645%
same,% inhibition Apo pol 10',DRC-1; 10'; concentration 40,76.8361%
same,% inhibition Apo pol 10',DRC-1; 10'; concentration 80,88.3009%
same,% inhibition Apol 90',DRC-1; 90'; concentration 2.5,15.7319%
same,% inhibition Apol 90',DRC-1; 90'; concentration 5,18.7201%
same,% inhibition Apol 90',DRC-1; 90'; concentration 10,28.2695%
same,% inhibition Apol 90',DRC-1; 90'; concentration 20,34.3533%
same,% inhibition Apol 90',DRC-1; 90'; concentration 40,46.1706%
same,% inhibition Apol 90',DRC-1; 90'; concentration 80,68.1347%
same,% inhibition apPOL 180',DRC-1; 180'; concentration 2.5,13.4028%
same,% inhibition apPOL 180',DRC-1; 180'; concentration 5,8.316%
same,% inhibition apPOL 180',DRC-1; 180'; concentration 10,15.9728%
same,% inhibition apPOL 180',DRC-1; 180'; concentration 20,20.4489%
same,% inhibition apPOL 180',DRC-1; 180'; concentration 40,28.0717%
same,% inhibition apPOL 180',DRC-1; 180'; concentration 80,50.5655%
same,% inhibition Apo pol 5',"DRC-2, 5', concentration 2.5",25%
same,% inhibition Apo pol 5',"DRC-2, 5', concentration 5",36%
same,% inhibition Apo pol 5',"DRC-2, 5', concentration 10",45%
same,% inhibition Apo pol 5',"DRC-2, 5', concentration 20",50%
same,% inhibition Apo pol 5',"DRC-2, 5', concentration 40",58%
same,% inhibition Apo pol 5',"DRC-2, 5', concentration 80",66%
same,% inhibition Apol 40',"DRC-2, 40', concentration 2.5",12%
same,% inhibition Apol 40',"DRC-2, 40', concentration 5",21%
same,% inhibition Apol 40',"DRC-2, 40', concentration 10",32%
same,% inhibition Apol 40',"DRC-2, 40', concentration 20",39%
same,% inhibition Apol 40',"DRC-2, 40', concentration 40",54%
same,% inhibition Apol 40',"DRC-2, 40', concentration 80",71%
same,% inhibition ApPOL 90',"DRC-2, 90', concentration 2.5",6%
same,% inhibition ApPOL 90',"DRC-2, 90', concentration 5",15%
same,% inhibition ApPOL 90',"DRC-2, 90', concentration 10",24%
same,% inhibition ApPOL 90',"DRC-2, 90', concentration 20",31%
same,% inhibition ApPOL 90',"DRC-2, 90', concentration 40",48%
same,% inhibition ApPOL 90',"DRC-2, 90', concentration 80",71%
same,% inhibition apPOL 180',"DRC-2, 180', concentration 2.5",2%
same,% inhibition apPOL 180',"DRC-2, 180', concentration 5",7.6%
same,% inhibition apPOL 180',"DRC-2, 180', concentration 10",17%
same,% inhibition apPOL 180',"DRC-2, 180', concentration 20",23%
same,% inhibition apPOL 180',"DRC-2, 180', concentration 40",41%
same,% inhibition apPOL 180',"DRC-2, 180', concentration 80",70%
same,% inhibition Apol 40',conc 80 (unit not given); 40'; DRC-2,71%
same,% inhibition ApPOL 90',conc 80 (unit not given); 90'; DRC-2,71%
same,DNA Pol,"primary screen hit value, DNA Pol (186 hits); 90 min, 10 µM",37
Cc1cc(C)nc(Nc2nc(CC(=O)Nc3nc(-c4ccco4)cs3)cs2)n1 [Molecule 92],IC50,[3],8.58 µM
C#CC(C=CC)OC(=O)c1ccccc1C(=O)O (stereo not drawn) [Molecule 61],IC50,[3],18.3 µM
O=C(O)c1ccc(COc2cc([N+](=O)[O-])cc3cccnc23)cc1 [KU0058403],DNA Pol,[1],59
same,% inhibition Apo pol 10',DRC-1; 10'; conc 2.5,14.3649%
same,% inhibition Apo pol 10',DRC-1; 10'; conc 5,27.7405%
same,% inhibition Apo pol 10',DRC-1; 10'; conc 10,42.2641%
same,% inhibition Apo pol 10',DRC-1; 10'; conc 20,75.4082%
same,% inhibition Apo pol 10',DRC-1; 10'; conc 40,92.5507%
same,% inhibition Apo pol 10',DRC-1; 10'; conc 80,97.3906%
same,% inhibition Apol 90',DRC-1; 90'; conc 2.5,7.929%
same,% inhibition Apol 90',DRC-1; 90'; conc 5,14.8475%
same,% inhibition Apol 90',DRC-1; 90'; conc 10,27.7051%
same,% inhibition Apol 90',DRC-1; 90'; conc 20,56.1594%
same,% inhibition Apol 90',DRC-1; 90'; conc 40,83.537%
same,% inhibition Apol 90',DRC-1; 90'; conc 80,95.378%
same,% inhibition apPOL 180',DRC-1; 180'; conc 2.5,6.111%
same,% inhibition apPOL 180',DRC-1; 180'; conc 5,9.076%
same,% inhibition apPOL 180',DRC-1; 180'; conc 10,18.5156%
same,% inhibition apPOL 180',DRC-1; 180'; conc 20,39.8383%
same,% inhibition apPOL 180',DRC-1; 180'; conc 40,74.9259%
same,% inhibition apPOL 180',DRC-1; 180'; conc 80,94.2886%
same,% inhibition Apo pol 5',DRC-2; 5'; conc 2.5,17%
same,% inhibition Apo pol 5',DRC-2; 5'; conc 5,21%
same,% inhibition Apo pol 5',DRC-2; 5'; conc 10,31%
same,% inhibition Apo pol 5',DRC-2; 5'; conc 20,43%
same,% inhibition Apo pol 5',DRC-2; 5'; conc 40,55%
same,% inhibition Apo pol 5',DRC-2; 5'; conc 80,60%
same,% inhibition Apol 40',DRC-2; 40'; conc 2.5,10%
same,% inhibition Apol 40',DRC-2; 40'; conc 5,14%
same,% inhibition Apol 40',DRC-2; 40'; conc 10,23%
same,% inhibition Apol 40',DRC-2; 40'; conc 20,39%
same,% inhibition Apol 40',DRC-2; 40'; conc 40,59%
same,% inhibition Apol 40',DRC-2; 40'; conc 80,74%
same,% inhibition ApPOL 90',DRC-2; 90'; conc 2.5,7%
same,% inhibition ApPOL 90',DRC-2; 90'; conc 5,12%
same,% inhibition ApPOL 90',DRC-2; 90'; conc 10,19%
same,% inhibition ApPOL 90',DRC-2; 90'; conc 20,35%
same,% inhibition ApPOL 90',DRC-2; 90'; conc 40,57%
same,% inhibition ApPOL 90',DRC-2; 90'; conc 80,76%
same,% inhibition ApPOL 90',DRC-2; 90'; concentration 80,76%
same,% inhibition apPOL 180',DRC-2; 180'; conc 2.5,1.43%
same,% inhibition apPOL 180',DRC-2; 180'; conc 5,2.25%
same,% inhibition apPOL 180',DRC-2; 180'; conc 10,8.43%
same,% inhibition apPOL 180',DRC-2; 180'; conc 20,22%
same,% inhibition apPOL 180',DRC-2; 180'; conc 40,48%
same,% inhibition apPOL 180',DRC-2; 180'; conc 80,76%
same,% inhibition apPOL 180',DRC-2; 180'; concentration 80,76%
same,DNA Pol,[2],59
Cc1ccc(NC(=O)Cn2ccc3c(=O)[nH]ccc32)cc1F [Molecule 48],IC50,[3],15.3 µM
